Data taken from patent US11420949B2, “Cystine diamide analogs for the prevention of cystine stone formation in cystinuria” (Rutgers, The State University of New Jersey, priority 2013, dated 2022).
Values belong to the molecule of their own block, whether it stands above or below them.

Tests used:
[1] = Fluorescence assay for inhibition of L-cystine crystal formation (aqueous solubility of L-cystine, OPA/NBC); format: physicochemical; settings: for Ratio: improvement in potency over the control CDME; for fold increase in potency/activity as compared to CDME: at increasing the aqueous solubility of L-cystine
Description: As used herein, the EC2x's are the concentrations required of the candidate compounds to double the aqueous solubility of cystine and were determined to assess drug potency and potential dosing regimens for in vivo use. One of ordinary skill in the art is readily able to ascertain such information using commonly known methodologies.
Another aspect of the present invention is directed to the processes of determining the concentration of L-cystine using a fluorescence assay after OPA/NBC derivatization. In at least one embodiment with respect to this aspect of the invention, the concentration of the L-cystine was assessed by a fluorescence assay. Accordingly, the inventors developed a fluorescence-based assay using O-phthaldialdehyde (OPA) and N-Boc-cysteine (NBC) to accurately measure the concentration of L-cystine in aqueous solutions using a similar protocol we previously reported. OPA/NBC are popular reagents used for precolumn derivatization of amino acids in HPLC. This derivatization is fast and simple to operate. However, the reaction of OPA with the disulfide cystine and NBC yielded derivatives with weak fluorescence. The disulfide in cystine was reduced and then alkylated with iodoacetic acid to form S-carboxymethylcysteine, which yielded OPA/NBS derivatives with normal fluorescence. L-Cystine solution was thus used to construct a standard curve. L-Cystine first reacted with DTT for 10 min, followed by reaction with iodoacetic acid for 15 min, then reacted with OPA and NBC for 3 min. The final mixture was pipetted into 384-well plate and the fluorescence intensity was read at Ex 340 nm/Em 460 nm. A linear standard curve was obtained in the concentration range between 50 μM and 400 μM (see FIG. 3).
Formation of supersaturation solution—a supersaturated solution was formed by dissolving 21 mg of L-cystine in 30 mL of Millipore water (˜3 mM) under reflux at 100° C. for 20 min until the L-cystine was completely dissolved. The supersaturated solution was then allowed to cool slowly with stirring for 75 min.
Construction of standard curves—L-Cystine (5 mg) was dissolved in Millipore water (34.7 mL) to form a 0.6 mM solution as a stock solution. Then, L-cystine solution was diluted to 0.4, 0.3, 0.2, 0.1, 0.05 mM solution. 10 uL of each L-cystine solutions, 90 uL of 0.1 M dibasic sodium phosphate solution, and 10 uL of DTT solution (12.5 mM) were mixed at r.t. for 10 min, before the addition of 10 uL of iodoacetic acid (100 mM) and continued incubation at r.t. for an additional 15 min. This was then followed by the addition of 10 uL of OPA (100 mM in methanol) and 10 uL of NBC (100 mM in methanol). The derivatization was allowed to proceed for 3 min before 40 uL of the mixture was plated in a 384-well plate and read at Ex 340 nm/Em 460 nm. The standard curve was repeated for each set of experiments and used to calculate the concentration of L-cystine in each sample.
Determination of L-cystine concentration—All test compounds were dissolved in water to form 10 mM stock solution. 5 uL of each solution was added to 500 uL L-cystine supersaturated solution. The mixtures were allowed to stand at 25° C. for 72 h. At the end of incubation, the mixtures were centrifuged at 10,000 rpm for 4 min and the supernatants were diluted 2-fold for concentration measurement. Each diluted mixture (10 uL), 0.1 M dibasic sodium phosphate solution (90 uL), and 10 uL of DTT solution (12.5 mM) were mixed at r.t. for 10 min, before the addition of 10 uL of iodoacetic acid (100 mM) and continued incubation at r.t. for an additional 15 min. Derivatization was performed by the addition of 10 uL of OPA (100 mM in methanol) and 10 uL of NBC (100 mM in methanol) for 3 min. 40 uL of the derivatized mixture was plated in a 384-well plate and fluorescence was read at Ex 340 nm/Em 460 nm to derive the concentrations of the original mixtures. […]

[2] = Compound concentration and volume of mouse urine after 7 daily oral doses (LC-MS/MS); format: in vivo, mice; settings: for oral bioavailability: concluded from urine concentrations after oral dosing
Description: This dose is equivalent to 29 μmol/kg (29 mg/m^2 assuming a body surface area of 0.007 m^2). To determine LH707/LH708 absorption and excretion, these compounds were administered daily for seven days and urine samples collected before and immediately after the last treatment.
(§1) Urine samples (0.15 to 1.1 ml) were collected by placing the mice in metabolic cages for four hours or longer and frozen at −20° C. The four-week treatment samples were analyzed for amino acids by ion exchange chromatography on a Biochrom analyzer (Biochrom US, Holliston, Mass.) and the amino acid levels normalized to nmol/mg creatinine. The seven-day treatment samples were analyzed for LH707 and LH708 by LC-MS (see below).
It was determined that the concentrations of LH707/LH708 in the mine samples collected using LC-MS/MS in positive MRM mode (LH707, 379.0→188.9; LH708, 203.1→101.3) on a Transcend LX2 system (Thermo Fisher, Waltham, Mass.) coupled to an API 4000 (AB Sciex, Framingham, Mass.). […] The gradient was performed at a flow rate of 750 μL/min as follows: 95% B for 90 s, 95 to 5% B in 42 s, 5% B for 30 s.

rats = settings: prior report; cited from earlier work
cell culture = cell culture experiments, prior report; cited from earlier work
[3] = AFM, prior report; cited from earlier work
[4] = prior report; cited from earlier work
Slc3a1 knockout mice = assay: In vivo activity in a genetic mouse model, four-week oral treatment (bladder stones, urine amino acids)
Description: Slc3a1 knockout mice in a mixed 129/C57BL6 background were used in the studies described here. Two-mouth old knockout male mice for LH707 or LH708 treatment were selected. […] Most male mice over age six months have bladder stones and some have kidney stones as well. Female knockout mice have crystalluria but no stones until age over 12 months. Mouse genotypes and gender were determined by PCR amplification of tail DNA. Based on previous observations, Slc3a1 heterozygotes have no apparent phenotype so they were used in place of wild-type mice as needed. Animal studies were conducted in accordance with Rutgers University IACUC policies.
LH707 dihydrochloride (MW 451.43) and LH708 tetrahydrochloride (MW 550.44) were prepared fresh daily (2.9 mM in water) and 200 μl was administered to Slc3a1 knockout male mice (body weight 20 g) by gavage daily for four weeks using a 20G disposable flexible plastic feeding needle with a soft tip (Model FTP-20-30, Instech Laboratories, Inc., Plymouth Meeting, Pa.).
This dose is equivalent to 29 μmol/kg (29 mg/m^2 assuming a body surface area of 0.007 m^2). […]
as §1
Mice were sacrificed after urine collection and the bladder and kidneys removed and placed in 10% formalin. […] This application was evaluated for the assessment of quantitative parameters such as bladder volume, stone volume, and stone number from the scanned 3D datasets.
After micro CT scanning, bladders were weighed and the stones removed, weighed, counted, and measured in the longest dimension (see FIG. 5). […]

[5] = concentration required to double the aqueous solubility of cystine, water, 25° C., 72 h
[6] = effective concentration required to double the solubility of L-cystine in water

SMILES: N[C@@H](CSSC[C@H](N)C(=O)N1CCCCC1)C(=O)N1CCCCC1 [LH706, L-Cystine bispiperidine]
EC2x [1, 5]: 1.59 mM
Ratio [1]: 4.0

compound concentration in mouse urine ([2]; after 7 daily oral doses): micromolar concentrations
oral bioavailability [2]: readily bioavailable
SMILES: N[C@@H](CSSC[C@H](N)C(=O)N1CCOCC1)C(=O)N1CCOCC1 [LH707]
fold increase in potency/activity as compared to CDME ([1]; listed as CDMOR): about 7 fold
fold increase in potency/activity as compared to CDME ([1]; listed as VII): 7.44 fold
EC2x [1, 5]: 0.86 mM
EC2x [1, 6]: 0.00086 mM
Ratio [1]: 7.4
concentrations at which inhibition of cystine crystallization in vitro occurs [1]: submicromolar

SMILES: N[C@@H](CSSC[C@H](N)C(=O)NC1CC1)C(=O)NC1CC1 [LH704, L-Cystine bis(cyclopropylamide)]
EC2x [1, 5]: 3.53 mM
Ratio [1]: 1.8

SMILES: COC(=O)[C@@H](N)CSSC[C@H](N)C(=O)OC [CDME, L-cystine dimethylester]
dosage demonstrating adverse effects (rats): approximately 500 mg/kg per day
concentration causing loss of cell viability (cell culture): approximately 1 mM
EC2x [1, 5]: 6.37 mM
EC2x [1, 6]: 0.00353 mM
Ratio [1]: 1.0
growth velocity of six symmetry-equivalent {100} steps of L-cystine crystals [3]: dramatically reduce
concentration that almost completely inhibits the crystallization of L-cystine in water [4]: above 2 mg/L

compound concentration in mouse urine ([2]; after 7 daily oral doses): micromolar concentrations
compound concentration in urine of Slc3a1 knockout mice versus control or normal mice ([2]; after 7 daily oral doses, FIG. 7): significantly higher concentrations
oral bioavailability [2]: readily bioavailable
SMILES: CN1CCN(C(=O)[C@@H](N)CSSC[C@H](N)C(=O)N2CCN(C)CC2)CC1 [LH708, L-Cystine bis(N′-methylpiperazide)]
efficacy at inhibiting cystine stone formation (Slc3a1 knockout mice; Slc3a1 knockout male mice, gavage daily for four weeks, LH708 versus LH707): better efficacy
urine concentration of other amino acids (ornithine, lysine, arginine, proline, valine, leucine, phenylalanine) (Slc3a1 knockout mice; four-week treatment): no significant changes
concentration of cystine in mouse urine as compared to before treatment (Slc3a1 knockout mice; four-week treatment, paired t-test): significantly increased
fold increase in potency/activity as compared to CDME ([1]; listed as CDNMP): 24 fold
fold increase in potency/activity as compared to CDME ([1]; listed as VIII): 24.41 fold
EC2x [1, 5]: 0.26 mM
EC2x [1, 6]: 0.00026 mM
Ratio [1]: 24.4
concentrations at which inhibition of cystine crystallization in vitro occurs [1]: submicromolar

SMILES: N[C@@H](CSSC[C@H](N)C(=O)NCCO)C(=O)NCCO [LH709, L-Cystine diethanolamide]
EC2x [1, 5]: 2.02 mM
Ratio [1]: 3.2

SMILES: COC(=O)[C@@H](N)CSSC[C@H](N)C(=O)O [CME, L-cystine methylester]
growth velocity of six symmetry-equivalent {100} steps of L-cystine crystals [3]: dramatically reduce
